Measured values as given in ChEMBL document CHEMBL1201862, “PubChem BioAssay data set” (2004).
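Each compound was tested at five concentrations against cells in 96-well plates for 48 hours. At the GI50, growth is halved.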 The source made the active and inactive calls. No stated cut-off is given here; in the data, active = GI50 up to about 1.1 µM and inactive = higher.

Columns and labels:
Experiment in all cases: inhibition of tumour cell growth, NCI panel, 48 h
A498 = system: A498
CAKI-1 = system: CAKI-1
CCRF-CEM = system: CCRF-CEM
HCC 2998 = system: HCC 2998
HL-60 = system: HL-60
K562 = system: K562
LOX IMVI = system: LOX IMVI
NCI-H226 = system: NCI-H226
OVCAR-5 = system: OVCAR-5
RPMI-8226 = system: RPMI-8226
SF-268 = system: SF-268
SF-295 = system: SF-295
SN12C = system: SN12C
SW-620 = system: SW-620
TK-10 = system: TK-10
U-251 = system: U-251
UACC-257 = system: UACC-257
UACC-62 = system: UACC-62
RXF 393 = system: RXF 393

Measured: GI50

COc1ccc2c(c1)[n+]([O-])c(-c1ccc(OC)c(OC)c1)c(N)[n+]2[O-]
inactive: A498 > 100 µM | CAKI-1 32.1 µM | CCRF-CEM 84.1 µM | HCC 2998 > 100 µM | HL-60 53.2 µM | K562 72.1 µM | LOX IMVI > 100 µM | NCI-H226 > 100 µM | OVCAR-5 > 100 µM | RPMI-8226 > 100 µM | SF-268 35.2 µM | SF-295 67.1 µM | SN12C 68.9 µM | SW-620 > 100 µM | TK-10 > 100 µM | U-251 68.7 µM | UACC-257 31 µM | UACC-62 31.1 µM

C[Si](C)(C)/C=C\CCCN1C(=O)CCC1=O
inactive: A498 > 100 µM | CCRF-CEM 64.7 µM | HCC 2998 > 100 µM | HL-60 > 100 µM | K562 60 µM | LOX IMVI > 100 µM | OVCAR-5 86.5 µM | RPMI-8226 > 100 µM | SF-268 > 100 µM | SF-295 > 100 µM | SN12C > 100 µM | SW-620 > 100 µM | TK-10 > 100 µM | U-251 > 100 µM | UACC-257 > 100 µM | UACC-62 > 100 µM

Cc1ccc(C(C2C(=O)N(C)C(=O)N(C)C2=O)C(F)(F)C(=O)N(C)C)cc1 (configuration not stated)
inactive: A498 > 100 µM | CAKI-1 > 100 µM | CCRF-CEM > 100 µM | HCC 2998 > 100 µM | LOX IMVI > 100 µM | NCI-H226 > 100 µM | OVCAR-5 > 100 µM | RPMI-8226 > 100 µM | RXF 393 > 100 µM | SF-268 > 100 µM | SF-295 > 100 µM | SW-620 > 100 µM | TK-10 > 100 µM | U-251 > 100 µM | UACC-257 > 100 µM | UACC-62 > 100 µM

C1CC[N+]23CCCC[N+]2(C1)CCCC3 (configuration not stated)
inactive: A498 > 100 µM | CAKI-1 > 100 µM | CCRF-CEM > 100 µM | HCC 2998 > 100 µM | HL-60 > 100 µM | K562 > 100 µM | NCI-H226 > 100 µM | OVCAR-5 > 100 µM | RPMI-8226 > 100 µM | SF-268 > 100 µM | SF-295 > 100 µM | SN12C > 100 µM | SW-620 > 100 µM | TK-10 > 100 µM | U-251 > 100 µM | UACC-257 > 100 µM | UACC-62 > 100 µM

Cc1cc([N+](=O)[O-])ccc1NC(=O)C(=O)C(C(=O)c1ccccc1-c1ccccc1)C1OC(=O)c2ccccc21 (configuration not stated)
inactive: A498 > 10 µM | CAKI-1 23.8 µM | CCRF-CEM 22.9 µM | HCC 2998 15.5 µM | K562 25.4 µM | NCI-H226 12.2 µM | OVCAR-5 15.4 µM | RPMI-8226 24 µM | RXF 393 4.85 µM | SF-268 21.6 µM | SF-295 19.2 µM | SN12C 15.8 µM | SW-620 18 µM | TK-10 17.8 µM | U-251 12.5 µM | UACC-257 25.4 µM | UACC-62 4.11 µM

COC(=O)[C@@](C)(COC(=O)C(C)(C)C)NC(=O)OC(C)(C)C
inactive: A498 > 100 µM | CAKI-1 > 100 µM | CCRF-CEM > 100 µM | HCC 2998 > 100 µM | K562 > 100 µM | LOX IMVI > 100 µM | NCI-H226 > 100 µM | OVCAR-5 > 100 µM | RPMI-8226 > 100 µM | RXF 393 > 100 µM | SF-268 > 100 µM | SF-295 > 100 µM | SN12C > 100 µM | SW-620 > 100 µM | TK-10 > 100 µM | U-251 > 100 µM | UACC-257 > 100 µM | UACC-62 > 100 µM

COc1cc(/C=N/N=C(\N)NO)cc(Cl)c1O
inactive: A498 34.4 µM | CAKI-1 26.9 µM | CCRF-CEM 38.1 µM | HCC 2998 45.3 µM | K562 53.2 µM | LOX IMVI 31 µM | NCI-H226 22.8 µM | OVCAR-5 35.3 µM | RPMI-8226 > 100 µM | RXF 393 11.5 µM | SF-268 46.7 µM | SF-295 58.7 µM | SN12C 48.8 µM | SW-620 99.3 µM | U-251 48.9 µM | UACC-257 73.8 µM | UACC-62 42.4 µM

N#Cc1cccc(NC(=O)c2ccc(C(=O)O)c(C(=O)c3ccc(C(=O)O)c(C(=O)Nc4cccc(C#N)c4)c3)c2)c1
inactive: A498 > 100 µM | CAKI-1 > 100 µM | CCRF-CEM > 100 µM | HL-60 > 100 µM | K562 > 100 µM | LOX IMVI > 100 µM | NCI-H226 > 100 µM | OVCAR-5 > 100 µM | RPMI-8226 > 100 µM | RXF 393 > 100 µM | SF-268 > 100 µM | SF-295 > 100 µM | SN12C > 100 µM | SW-620 > 100 µM | TK-10 > 100 µM | U-251 > 100 µM | UACC-257 > 100 µM | UACC-62 > 100 µM
